In EPA's ToxValDB 9.5:
Several values for one entry are separate records, joined by “and”; a condition that tells them apart may be missing. Equal values may be shown once.

Test system: Mus musculus
Details: oral, drinking water
[1] = short-term, duration: 28 days, M, BALB/c, activity cage (locomotion events, 60 min) + Morris water maze (escape time, acquisition, day 5) + Morris water maze (platform crossing, …
[2] = short-term, duration: 28 days, M, BALB/c, elevated plus maze (time in open arms) + forced swim (immobility time, last 4 min) + forced swim (immobility time, total 6 min)
[3] = subchronic, duration: 8 weeks, M, Kunming, Y-maze (number of training runs to meet 90% learning standard)
[4] = subchronic, duration: 8 weeks, M, Kunming, open field (grid entry, 3 minutes)
[5] = subchronic, duration: 10 weeks, ICR, Y-maze (number of training runs to meet 90% learning standard)
[6] = subchronic, duration: 30 days, F, Swiss Albino, rotarod (latency to fall, 25 rpm)
[7] = subchronic, duration: 64 days, M, C57BL/6, formalin test (flinches, early phase, 10 min) + formalin test (flinches, late phase, 60 min) + formalin test (flinches/10 min, 60 min) + …

[F-].[Na+] [Sodium fluoride]
NOEL (developmental, M, Kunming, generation: F1, F1: activity chamber (ambulation events) + F1: activity chamber (rearing events) + F1: novel object test (adaptation phase memory index) + …): 18.4 mg/kg-day | LOEL (developmental, M, NMRI, generation: F1, F1: maze test (completion time, assessment 1) + F1: maze test (completion time, assessment 2)): 0.113 mg/day | NOEL (short-term, duration: 28 days, M, BALB/c, activity cage (locomotion events, 10 min) + activity cage (rearing events, 10 min) + activity cage (rearing events, 60 min) + elevated plus …): 1.16 mg/kg-day | LOEL [1]: 0.58 mg/kg-day | NOEL [1]: 0.23 mg/kg-day | LOEL [2]: 1.16 mg/kg-day | NOEL [2]: 0.58 mg/kg-day | NOEL (subchronic, duration: 8 weeks, M, Kunming, Y-maze (% of correct responses 24 hrs after mastering learning standard)): 1.16 mg/kg-day | LOEL [3]: 0.58 mg/kg-day and 0.7 mg/kg-day | NOEL [3]: 0.12 mg/kg-day and 0.35 mg/kg-day | NOEL (subchronic, duration: 8 weeks, M, Kunming, open field (grid entry, 1 minute) + open field (rearing events) + open field (standing against wall events) + Y-maze (percent correct …): 1.39 mg/kg-day | LOEL [4]: 1.39 mg/kg-day | NOEL [4]: 0.7 mg/kg-day | NOEL (subchronic, duration: 10 weeks, ICR, Y-maze (% of correct responses 24 hrs after mastering learning standard)): 1.19 mg/kg-day | LOEL [5]: 1.19 mg/kg-day | NOEL [5]: 0.59 mg/kg-day | NOEL (subchronic, duration: 30 days, F, Swiss Albino, elevated plus maze (time to move from open to closed arm, trial 1) + open field (fecal matter) + open field (grooming time) + open field (…): 24.5 mg/kg-day | LOEL (subchronic, duration: 30 days, F, Swiss Albino, elevated plus maze (time to move from open to closed arm, trial 2) + forced swim (immobility time) + motor coordination (akinesia, latency …): 12.3 mg/kg-day | LOEL (subchronic, duration: 30 days, F, Swiss Albino, maze test (latency) + motor coordination (akinesia, latency time) + motor coordination (catalepsy, latency time) + swim test (total swim …): 14.7 mg/kg-day | LOEL [6]: 24.5 mg/kg-day | NOEL [6]: 12.3 mg/kg-day | LOEL (subchronic, duration: 64 days, M, C57BL/6, Von Frey hairs test (relative frequency of paw withdrawal)): 5.79 mg/kg-day | LOEL [7]: 11.6 mg/kg-day | NOEL [7]: 5.79 mg/kg-day | NOEL (subchronic, duration: 64 days, M, C57BL/6, formalin test (licking time, late phase, 60 min) + formalin test (licking time/10 min, 60 min) + open field (total distance moved, 1 hr) + …): 11.6 mg/kg-day
